From PMC6214143, “Oncotoxic Properties of Serotonin Transporter Inhibitors and 5-HT1A Receptor Ligands” (International Journal of Molecular Sciences, 2018)
Structures can show the parent of a compound that is named as a salt.

What was measured:
[1] = target: T1, 5-HT1A receptor (Homo sapiens, UniProt P08908); assay: cAMP level (HTRF) in HEK293 cells that overexpress the 5-HT1AR gene; type: cell-based
T1 construct: EGFP; expressed in transfected cells
T1 sequence (P08908 1-422): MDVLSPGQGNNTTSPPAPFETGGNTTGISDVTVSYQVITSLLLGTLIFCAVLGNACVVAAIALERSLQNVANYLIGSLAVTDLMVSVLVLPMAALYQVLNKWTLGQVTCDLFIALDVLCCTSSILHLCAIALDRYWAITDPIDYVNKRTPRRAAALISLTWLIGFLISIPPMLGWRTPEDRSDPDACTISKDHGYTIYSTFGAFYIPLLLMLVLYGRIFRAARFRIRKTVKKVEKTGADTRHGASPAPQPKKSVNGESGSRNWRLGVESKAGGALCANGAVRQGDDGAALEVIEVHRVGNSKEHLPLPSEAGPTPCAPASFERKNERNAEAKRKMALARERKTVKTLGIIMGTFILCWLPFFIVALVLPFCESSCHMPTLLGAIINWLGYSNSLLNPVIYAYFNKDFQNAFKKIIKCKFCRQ
Experimental: (§1) The examination of the functional activity read out as cAMP level inhibition and ERK1/2 and Akt1 phosphorylation was performed according to the instructions of the One-plate Cisbio Bioassays cAMP dynamic 2, phospho-ERK (Thr202/Tyr204) and Akt1 phospho- S473 Cellular Assay Kits respectively, using a HEK293 human fibroblast cell line that overexpresses 5-HT1A receptors. […] The cAMP levels in PC-3 cells were determined using 600,000 cells/mL. Receptor activation with the appropriate ligands was carried out for 30 min, and then the cells were lysed. The results were analyzed with GraphPad Prism v 6.0 (GraphPad Software, San Diego, CA, USA) using its in-built functions. Ligand activity was determined using a 4-parameter equation of the dose-response function. […] M.
(§2) All compounds were tested with both agonists and antagonists. To test the response of cAMP to an agonist the cells were activated with forskolin (1 µM) followed by agonist addition. […] Data are an average of minimum three independent experiments in duplicate. The control of specific activity was measured under the same conditions on cells lacking the 5-HT1A receptor. The results were expressed as % of the reference agonist activity. In the antagonist mode 100% of the reference agonist activity (EC80) corresponded to 0% antagonist activity.

[2] = tested on: Balb/c 3T3 cells; assay: MTT cell survival assay, Balb/c 3T3 cells (normal reference); type: cell-based, murine; details: Mus musculus, BALB/c3T3, 72 h
Experimental: (§3) The effects of the test compounds on the survival of PC-3, SH-SY5Y, Balb/c 3T3 and HEK293 cells was measured with the aid of the 3-(4,5-dimethylthiazol-2-yl)-2,5-diphenyltetrazolium bromide (MTT) assay. The cells were cultured in 96-well plates (100 μL/well) for 72 h. The optimized initial densities were the following: for PC-3—60,000 cells/mL, SH-SY5Y and Balb/c 3T3—50,000 cells/mL.
(§4) After 20 h preincubation and evaluation of the uniformity of cell growth, the medium was aspirated, and the respective solutions of the substances were added to the culture medium. Control cells were only treated the solvent used for the compounds and medium alone.
(§5) MTT (3-(4,5-dimethylthiazol-2-yl)-2,5-diphenyltetrazolium bromide) is reduced by intracellular dehydrogenase, which is present only in live cells (mitochondria), to purple, water-insoluble formazan. After it is dissolved, formazan absorbance of the resulting solution is directly proportional to the number of living cells in culture.
After appropriate incubation, the culture medium was removed. Next, 50 μL of MTT solution (0.5 mg/mL) diluted in PBS to 0.5 mg/mL was added to each well. The plates were incubated for 3 h at 37 °C. Then, the precipitated formazan was dissolved by the addition of 200 μL isopropanol. After a 24-hour incubation at 4 °C in the dark, the absorbance of the dissolved formazan was measured at 570 nm (the maximum absorption of formazan) and at 690 nm (reference wavelength) using a Power Wave XS microplate spectrophotometer (Bio-Tek, Winooski, VT, USA). The plates were sealed to reduce evaporation before incubation. The test was performed in three to five independent experiments with four times the measured concentration tested. The cell survival percentage was determined as % of controls, which were cells treated with the test compound solvent at the highest concentration.

[3] = target: T1, 5-HT1A receptor; assay: ERK1/2 phosphorylation (HTRF) in HEK293 cells that overexpress the 5-HT1AR gene; type: cell-based; details: for EC50: agonist mode, HEK293-5-HT1A cells, read-out: ERK1/2 EC50
Experimental: as §1, §2

[4] = target: T2, serotonin transporter (SERT) (Rattus norvegicus, UniProt P31652); assay: In vitro binding affinity for serotonin transporter ([3H]-citalopram displacement); details: rat cerebral cortex, read-out: SERT Ki ± SEM
T2 construct: Rat cerebral cortex was homogenized in 30 volumes of ice-cold 50 mM Tris-HCl; from tissue; host or cells: rat cerebral cortex (membrane pellet)
Experimental: The experiments were performed according to the method described by Owens et al. Rat cerebral cortex was homogenized in 30 volumes of ice-cold 50 mM Tris-HCl containing 150 mM NaCl and 5 mM KCl, pH 7.7 at 25 °C and centrifuged at 20,000 × g for 20 min. The supernatant was decanted, and the pellet was resuspended in 30 volumes of buffer and centrifuged three times. The final pellet was suspended in Tris-HCl buffer at a proportion of approximately 5 mg wet weight/mL. An increasing concentration of the analyzed compounds (30 μL) was added to the incubation mixture containing 240 μL of tissue suspension and 30 μL of 1 nM [^3H]-citalopram (used for labeling 5-HT-transporter). Non-specific binding was determined in the presence 30 μL of 1 μM imipramine (displacer). Duplicate samples were incubated at room temperature for 1 h. The incubation was terminated by rapid filtration over fiberglass filters FilterMate B (Perkin Elmer, Waltham, MA, USA) using a 96-well FilterMate harvester (PerkinElmer, Waltham, MA, USA). The radioactivity of the filters was measured with a MicroBeta TriLux 1450 scintillation counter. Ki values were calculated from the Cheng–Prusoff equation [31]: (1) Ki=IC50/1+Lo/KD where Lo is the labeled ligand concentration, and KD is the dissociation constant of the labeled ligand.

[5] = tested on: SH-SY5Y cells; assay: MTT cell survival assay, SH-SY5Y cells; type: cell-based, human; details: for IC50: Homo sapiens, SH-SY5Y cells, MTT, 72 h; for Selectivity Index: IC50 Balb/c 3T3 / IC50 SH-SY5Y
Experimental: as §3, §4, §5
(§6) After appropriate incubation, the culture medium was removed. Next, 50 μL of MTT solution (0.5 mg/mL) diluted in PBS to 0.5 mg/mL was added to each well. […] Then, the precipitated formazan was dissolved by the addition of 200 μL isopropanol. […] The plates were sealed to reduce evaporation before incubation. The test was performed in three to five independent experiments with four times the measured concentration tested. The cell survival percentage was determined as % of controls, which were cells treated with the test compound solvent at the highest concentration.

[6] = tested on: PC-3 cells; assay: MTT cell survival assay, PC-3 cells; type: cell-based, human; details: for IC50: Homo sapiens, PC-3 cells, MTT, 72 h; for Selectivity Index: IC50 Balb/c 3T3 / IC50 PC-3
Experimental: as §3, §4, §5, §6

[7] = set-up: method as in PMID 23574807; details: Porsolt forced swim test; cited from earlier work
[8] = tested on: PC-3 prostate cancer cells; assay: Apoptosis determination (FITC Annexin V, flow cytometry) in PC-3 cells; type: cell-based, human; details: 72 h, sum of early and late apoptosis
Experimental: Apoptosis was measured using the FITC Annexin V Apoptosis Detection Kit I (BD Biosciences, San Jose, CA, USA). Cells, after incubations 72 h with tested agents, were centrifuged, rinsed twice with cold phosphate-buffered saline (PBS) and suspended in binding buffer at 1 × 10^6 cells/mL. Then, 100-μL volumes of the cell suspensions were labeled according to the manufacturer’s instructions. Flow cytometry analysis was performed within 1 h after labeling. Flow cytometry analyses was run on a FACSCanto II flow cytometer (BD Biosciences, San Jose CA, USA) and analyzed using BD FACSDiva software.

T2 sequence (P31652 whole entry): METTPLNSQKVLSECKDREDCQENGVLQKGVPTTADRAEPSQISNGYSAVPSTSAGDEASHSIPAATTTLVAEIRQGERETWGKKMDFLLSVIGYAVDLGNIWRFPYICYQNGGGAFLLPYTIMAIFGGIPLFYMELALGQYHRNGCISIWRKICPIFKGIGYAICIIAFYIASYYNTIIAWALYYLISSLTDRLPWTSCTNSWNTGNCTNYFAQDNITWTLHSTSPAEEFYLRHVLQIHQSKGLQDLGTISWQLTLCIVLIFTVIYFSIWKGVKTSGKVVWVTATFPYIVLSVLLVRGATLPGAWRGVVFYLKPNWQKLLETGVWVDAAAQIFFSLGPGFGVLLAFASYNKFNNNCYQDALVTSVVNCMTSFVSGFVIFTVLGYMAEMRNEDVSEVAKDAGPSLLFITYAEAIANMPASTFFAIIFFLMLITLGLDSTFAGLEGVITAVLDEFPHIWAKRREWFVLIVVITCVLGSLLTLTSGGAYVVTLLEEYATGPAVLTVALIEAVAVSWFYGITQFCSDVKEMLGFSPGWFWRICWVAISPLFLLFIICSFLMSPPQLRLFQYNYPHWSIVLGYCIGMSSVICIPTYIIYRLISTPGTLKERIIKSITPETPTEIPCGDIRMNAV

Structure (SMILES)	IC50 [1]	IC50 [3]	Ki [4]	melting point	EC50 [3]	IC50 [2]	IC50 [5]	Selectivity Index [5]	IC50 [6]	Selectivity Index [6]	antidepressant activity [7]	apoptosis ([8]; 25 μM)	apoptosis ([8]; 50 μM)	apoptosis ([8]; 75 μM)	Selectivity Index ([6]; listed as KW117 (6))
Cl.O=[N+]([O-])c1ccc2nc(N3CCN(Cc4ccc(F)cc4)CC3)ccc2c1 [AB5A, 2-[4-(4-fluorobenzyl)piperazin-1-yl]-6-nitroquinoline hydrochloride]	96.9 µM	17.9 µM	0.0074 ± 0.0024 µM	–	–	38.9 ± 4.08 µM	18.1 ± 1.68 µM	2.15	27.2 ± 3.2 µM	1.43	–	–	–	–	–
Cl.O=[N+]([O-])c1ccc2nc(N3CCN(CC4CCCCC4)CC3)ccc2c1 [AB21, 2-[4-(cyclohexylmethyl)piperazin-1-yl]-6-nitroquinoline hydrochloride]	0.002 µM	0.78 µM	0.0149 ± 0.0016 µM	107 to 108 °C	–	20.5 ± 3.5 µM	21.6 ± 1.07 µM	0.95	18 ± 1.88 µM	1.14	–	–	–	–	–
Cl.O=[N+]([O-])c1ccc2nc(N3CCN(CC4CCC4)CC3)ccc2c1 [AB22, 2-[4-(cyclobutylmethyl)piperazin-1-yl]-6-nitroquinoline hydrochloride]	76.1 µM	–	0.0076 ± 0.0008 µM	99 to 101 °C	0.0138 µM	35.5 ± 8.71 µM	35 ± 8.96 µM	1.01	23.5 ± 2.21 µM	1.51	–	–	–	–	–
CNCCC(Oc1ccc(C(F)(F)F)cc1)c1ccccc1 (stereo not drawn) [Fluoxetine, fluoxetine, reference compound]	–	–	–	–	–	–	–	–	–	–	–	21%	60%	80%	–
COCCCC/C(=N\OCCN)c1ccc(C(F)(F)F)cc1 [Fluvoxamine, fluvoxamine, reference compound]	–	–	–	–	–	52 ± 5.4 µM	89.4 ± 3.64 µM	–	47.8 ± 2.85 µM	–	–	–	–	–	–
COCCCC/C(=N\OCCNC(C)=O)c1ccc(C(F)(F)F)cc1 [N-Ac-Fluvoxamine, reference compound]	20.1 µM	11.2 µM	–	–	–	136 ± 3.95 µM	112 ± 3.85 µM	1.21	92.2 ± 9.65 µM	–	–	–	–	–	–
CC(=O)N1CCC(c2ccc(F)cc2)C(COc2ccc3c(c2)OCO3)C1 (stereo not drawn) [N-Ac-Paroxetine, reference compound]	1 µM	–	–	–	4.23 µM	66.2 ± 2.35 µM	65.6 ± 1.01 µM	1.01	45.3 ± 1.44 µM	1.46	–	–	–	–	–
Fc1ccc([C@@H]2CCNC[C@H]2COc2ccc3c(c2)OCO3)cc1 [Paroxetine, paroxetine, reference compound]	0.0511 µM	–	–	–	0.15 µM	14.9 ± 0.24 µM	18.1 ± 0.48 µM	0.82	12.1 ± 0.37 µM	1.23	–	–	–	–	–
COc1ccccc1N1CCN(CCN(C(=O)C2CCCCC2)c2ccccn2)CC1 [WAY100635, N-[2-[4-(2-Methoxyphenyl)-1-piperazinyl]ethyl]-N-2-pyridinylcyclohexanecarboxamide maleate, reference compound]	–	–	–	–	–	88 ± 13.5 µM	74.3 ± 11.8 µM	–	43.3 ± 4.05 µM	–	–	–	–	–	–

The next lines start with results.

IC50 [1]	IC50 [3]	Ki [4]	melting point	EC50 [3]	Structure (SMILES)	IC50 [2]	IC50 [5]	Selectivity Index [5]	IC50 [6]	Selectivity Index [6]	antidepressant activity [7]	apoptosis ([8]; 25 μM)	apoptosis ([8]; 50 μM)	apoptosis ([8]; 75 μM)	Selectivity Index ([6]; listed as KW117 (6))
9.7 µM	1.28 µM	–	–	–	CCCCCCCCCN1CCN(c2ccc3cc([N+](=O)[O-])ccc3n2)CC1 [AZ05, 6-nitro-2-(4-nonylpiperazin-1-yl)quinolone hydrochloride]	24.4 ± 1.49 µM	17.3 ± 1.85 µM	1.41	9.85 ± 0.79 µM	2.48	moderate antidepressant activity	–	–	–	–
0.73 µM	0.9 µM	–	–	–	CCCCCCCCCCCN1CCN(c2ccc3cc([N+](=O)[O-])ccc3n2)CC1.Cl [AZ07, 6-nitro-2-(4-undecylpiperazin-1-yl)quinoline hydrochloride]	11.5 ± 0.62 µM	9.15 ± 0.74 µM	1.26	5.74 ± 1.02 µM	2.00	moderate antidepressant activity	20%	35%	44%	–
–	7.18 µM	–	–	–	CCCCCCCCN1CCN(c2ccc3cc([N+](=O)[O-])ccc3n2)CC1.Cl [KW117, 6-nitro-2-(4-octylpiperazin-1-yl)quinoline hydrochloride]	38.1 ± 6.54 µM	25.4 ± 2.66 µM	1.50	14.4 ± 1.7 µM	–	moderate antidepressant activity	–	–	–	2.65
